Experimental findings from ChEMBL document CHEMBL4834425, “Spirombandakamine A3 and Cyclombandakamines A8 and A9, Polycyclic Naphthylisoquinoline Dimers, with Antiprotozoal Activity, from a Congolese Ancistrocladus Plant” (J Nat Prod, 2021) are described below.

One data set has as its system Plasmodium falciparum. Briefly: Antiplasmodial activity against Plasmodium falciparum NF54 erythrocytic stages assessed as inhibition of parasite growth after 48 hrs by liquid scintillation counting method. It is filed as functional, organism-based. The settings on record: NF54, 48 h.
For data set [1], the system named is Trypanosoma brucei rhodesiense. Briefly: Antitrypanosomal activity against bloodstream form of Trypanosoma brucei rhodesiense STIB900 assessed as inhibition of parasite growth incubated for 72 hrs by Alamar blue dye-based fluorometric analysis. As to conditions: STIB900, 72 h. Type of data set: functional, organism-based.
In a further data set the test system is Leishmania donovani. Briefly: Antileishmanial activity against Leishmania donovani MHOM/ET/67/L82 amastigotes assessed as inhibition of parasite growth measured after 72 hrs by alamar blue dye based fluorometric analysis. It is filed as functional, organism-based. As to conditions: MHOM/ET/67/L82, 72 h.
Data set [2] can be described thus: Selectivity index, ratio of IC50 for cytotoxicity against rat L6 cells to IC50 for antiplasmodial activity against Plasmodium falciparum NF54. It is filed as toxicity, cell-based. The settings on record: read-out: Ratio IC50.
For another data set, the system named is L6. Briefly: Cytotoxicity against rat L6 cells measured after 72 hrs by alamar blue dye based fluorometric analysis. Type of data set: cell-based. As to conditions: L6, 72 h.
The next data set has as its system Trypanosoma cruzi. Briefly: Antitrypanosomal activity against amastigote form of Trypanosoma cruzi Tulahuen C4 expressing LacZ infected in rat L6 cells assessed as inhibition of parasite growth incubated for 96 hrs by CPRG/Nonidet reagent based […] analysis. It is filed as functional, organism-based. The settings on record: Tulahuen C4, L6, 96 h.

Regarding `COc1ccc2c3c1C(=O)C[C@]1(C)Oc4c(cc(-c5c(O)cc(OC)c6c5C[C@H](C)N(C)[C@@H]6C)c5cc(C)cc(OC)c45)[C@]31Oc1cc(OC)c3c(c1-2)C[C@@H](C)N[C@H]3C`, the IC50 in the data set with Plasmodium falciparum stood at 0.152 µM; in data set [1], 4.08 µM; in the data set on Leishmania donovani, 27.9 µM; with L6, 19.3 µM; in the data set with Trypanosoma cruzi, 35.6 µM. Also, the selectivity ratio in data set [2] is 127.

`COc1ccc2c3c1C(=O)C[C@]31c3cc(-c4c(O)cc(OC)c5c4C[C@@H](C)N[C@@H]5C)c4cc(C)cc(OC)c4c3O[C@]1(C)Oc1cc(OC)c3c(c1-2)C[C@@H](C)N(C)[C@@H]3C`: the IC50 is 0.071 µM with Plasmodium falciparum; 0.292 µM in data set [1]; above 100 µM with Leishmania donovani; 19.3 µM in the data set with L6; 17.3 µM with Trypanosoma cruzi. Further, the selectivity ratio in data set [2] came out at 272.

As to `COc1ccc2c3c1C(=O)C[C@]1(C)Oc4c(cc(-c5c(O)cc(OC)c6c5C[C@H](C)N(C)[C@@H]6C)c5cc(C)cc(OC)c45)[C@]31Oc1cc(OC)c3c(c1-2)C[C@@H](C)N[C@@H]3C`, the IC50 was 0.059 µM with Plasmodium falciparum; 0.738 µM in data set [1]; 54.2 µM in the data set with Leishmania donovani; 16.8 µM in the data set on L6; 23.6 µM in the data set with Trypanosoma cruzi. Besides, the selectivity ratio in data set [2] stood at 282.

Consider `O=C(Cn1ccnc1[N+](=O)[O-])NCc1ccccc1` [BENZNIDAZOLE], for which, in the data set with Trypanosoma cruzi, the IC50 was 2.77 µM.

Take `CCCCCCCCCCCCCCCCOP(=O)([O-])OCC[N+](C)(C)C` [MILTEFOSINE]: the IC50 in the data set on Leishmania donovani was found to be 0.39 µM.
